Assay results from article PMC10911062, “Identification and structural validation of purine nucleoside phosphorylase from Plasmodium falciparum as a target of MMV000848” (The Journal of Biological Chemistry, 2023).
Read-outs that look alike come from different tables or passages of the source.

Assays:
[1] = target: T1, Purine nucleoside phosphorylase (PfPNP) (Plasmodium falciparum, UniProt Q8I3X4); experiment: xanthine oxidase-coupled inosine phosphorolysis assay; assay type: biochemical
T1 construct: gene PNP
T1 sequence (Q8I3X4 1-245): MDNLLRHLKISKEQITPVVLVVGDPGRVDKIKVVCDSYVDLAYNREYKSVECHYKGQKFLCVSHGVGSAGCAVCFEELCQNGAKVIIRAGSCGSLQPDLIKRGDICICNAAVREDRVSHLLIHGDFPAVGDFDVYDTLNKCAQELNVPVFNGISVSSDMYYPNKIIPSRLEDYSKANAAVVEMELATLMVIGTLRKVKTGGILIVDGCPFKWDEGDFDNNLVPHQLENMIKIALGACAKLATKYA

[2] = target: T1, Purine nucleoside phosphorylase (PfPNP); experiment: ITC; cocrystal structure at […] Å; also DSF, CETSA and enzyme inhibition (IC50 […], Ki […]); assay type: binding
Falcilysin = target: T2, Falcilysin (Plasmodium falciparum, UniProt Q76NL8); experiment: MS-CETSA (ITDR), intact infected erythrocytes and parasite lysate; minimal dose threshold; assay type: cell-based
T2 construct: gene FLN
T2 sequence (Q76NL8 whole entry): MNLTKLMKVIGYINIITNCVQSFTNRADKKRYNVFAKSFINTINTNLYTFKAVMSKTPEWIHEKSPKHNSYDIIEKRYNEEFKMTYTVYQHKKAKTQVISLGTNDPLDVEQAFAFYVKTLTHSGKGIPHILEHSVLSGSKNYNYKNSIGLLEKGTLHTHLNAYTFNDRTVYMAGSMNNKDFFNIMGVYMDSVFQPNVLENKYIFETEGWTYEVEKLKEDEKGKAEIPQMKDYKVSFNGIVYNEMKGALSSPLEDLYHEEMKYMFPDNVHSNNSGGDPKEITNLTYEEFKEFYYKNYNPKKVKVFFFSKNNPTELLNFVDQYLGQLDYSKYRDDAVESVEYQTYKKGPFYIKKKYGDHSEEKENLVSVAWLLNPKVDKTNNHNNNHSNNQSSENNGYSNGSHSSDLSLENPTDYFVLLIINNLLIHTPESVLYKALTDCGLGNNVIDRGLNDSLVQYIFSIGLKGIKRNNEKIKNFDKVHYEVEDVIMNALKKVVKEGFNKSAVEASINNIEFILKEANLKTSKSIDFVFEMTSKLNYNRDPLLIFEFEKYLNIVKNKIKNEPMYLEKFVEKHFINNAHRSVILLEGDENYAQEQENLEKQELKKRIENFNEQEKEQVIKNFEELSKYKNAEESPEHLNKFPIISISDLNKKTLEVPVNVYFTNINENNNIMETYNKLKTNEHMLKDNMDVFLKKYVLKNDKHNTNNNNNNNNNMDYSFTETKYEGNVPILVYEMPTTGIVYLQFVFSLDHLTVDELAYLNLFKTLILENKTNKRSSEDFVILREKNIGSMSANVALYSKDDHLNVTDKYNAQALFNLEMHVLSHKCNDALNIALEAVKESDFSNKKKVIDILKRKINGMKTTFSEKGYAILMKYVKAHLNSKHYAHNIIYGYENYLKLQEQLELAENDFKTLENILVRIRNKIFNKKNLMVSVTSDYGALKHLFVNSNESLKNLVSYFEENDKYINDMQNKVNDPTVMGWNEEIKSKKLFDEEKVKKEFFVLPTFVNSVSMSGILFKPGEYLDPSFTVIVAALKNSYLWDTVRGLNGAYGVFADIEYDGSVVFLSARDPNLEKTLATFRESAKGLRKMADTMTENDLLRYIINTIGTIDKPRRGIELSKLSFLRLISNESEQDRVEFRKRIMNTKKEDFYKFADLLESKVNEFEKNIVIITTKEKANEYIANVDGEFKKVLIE

[3] = target: T1, Purine nucleoside phosphorylase (PfPNP); experiment: Michaelis-Menten kinetics of the purified enzyme; assay type: biochemical
[4] = target: the molecule itself; experiment: crystal structure; co-crystal of PfPNP (37 mg/ml) with 3 mM MMV000848, sitting-drop vapor diffusion at 20 °C, 10% (w/v) PEG 1000; 1.85 Å, space group R32; hexamer formed through crystallographic symmetry

OC(c1cc(C(F)(F)F)nc2c(C(F)(F)F)cccc12)C1CCCCN1 (racemic) [mefloquine]
IC50 [1]: 327 µM

OC(CNC1CCCC1)Cn1c2ccccc2c2ccccc21 (stereo not drawn) [MMV000848, 1-carbazol-9-yl-3-cyclopentylamino-propan-2-ol]
Kd [2]: 1.52 µM | MDT (Falcilysin): 749.91 nM

O=c1[nH]cnc2c1ncn2[C@@H]1O[C@H](CO)[C@@H](O)[C@H]1O [inosine]
Michaelis-Menten kinetics of the purified enzyme [3]: Measurements of KM,app (apparent KM) of inosine was made in the presence of various concentrations of MMV000848

C=C[C@H]1C[N@@]2CC[C@H]1C[C@H]2[C@H](O)c1ccnc2ccc(OC)cc12 [quinine]
IC50 ([1]; read-out: IC50): 11.3 µM

B1: Plasmodium falciparum purine nucleoside phosphorylase (enzyme)
chain: T1 sequence (Q8I3X4 1-245)
notes: Purine nucleoside phosphorylase of Plasmodium falciparum, PlasmoDB PF3D7_0513300; gene subcloned into pNIC-CH; Homo-hexamer (three 2-fold symmetrical dimers around a crystallographic three-fold axis); one protein chain in the asymmetric unit; also called PfPNP; PNP; source: Rosetta BL21-DE3 Escherichia coli, purified (IMAC on HisTrapHP, SEC on Superdex 200)
stoichiometry N [4]: 6
